Tests used:
[1] = test system: Pseudomonas fluorescens A32 HPPD; type: cell-based; details: E. coli culture containing vector pRP C; for end concentration giving identical results (total absence of staining): compound in DMSO solution
Source text: pRP C: The vector pRP A (which is described in the application WO 96/38567), which contains a genomic DNA fragment and the encoding region of the Pseudomonas fluorescens A32 HPPD gene, was digested with NcoI, purified and then ligated into the expression vector pKK233-2 (Clontech) which itself had been digested with NcoI, the only cloning site of this vector. The orientation of the gene in the resulting vector pRP C, which allows expression under-the control of the trc promoter, was checked.
(§1) A YT-broth-type culture medium with 1% agarose (Gibco BRL ultra pure) and 5 mM L-tyrosine (Sigma), which contains the selection agent for the above vector pRP C is poured into 96-well plates at 100 μl per well. 10 μl of an E. coli culture in the exponential growth phase which contains the vector pRP C is applied to each well.
A series was established with identical culture medium containing different concentrations (0 mM to 14 mM) of 2-cyano-3-cyclopropyl-l-(2-methylsulphonyl-4-trifluoromethylphenyl)-propane-i,3-dione (EP 0 496 631) which was solubilized in water and brought to pH 7.5. This molecule is a diketonitrile, known as an efficient inhibitor of HPPD activity (Pallett, K. E. et al. 1997. Pestic. Sci. 50, 83-84).
The end concentrations of the two molecules in DMSO solution are 3.5 mM and 7 mM, respectively.

[2] = test system: HPPD activity; assay: In vivo activity of chimeric HPPDs (brown staining of isolated colonies); type: cell-based, E. coli; details: scale from 1 to 10, 10 being the most intense, reflects HPPD activity
Method: as §1
The brown staining was scored on a scale from 1 to 10, 10 being the most intense (as described in Example 1), by comparison with HPPDs derived from Arabidopsis thaliana (FAA) and Daucus carota (FCC).

Row | Molecule | end concentration giving identical results (total absence of staining) [1] | also measured
1 | CSc1ccc(C(=O)C(C#N)C(=O)C2CC2)c(S(C)(=O)=O)c1 (stereo not shown) [2-cyano-3-cyclopropyl-1-(2-methylsulphonyl-4-(methylthio)phenyl)-propane-1,3-dione] | 3.5 mM | 
2 | CS(=O)(=O)c1cc(C(F)(F)F)ccc1C(=O)C(C#N)C(=O)C1CC1 (stereo not drawn) [2-cyano-3-cyclopropyl-l-(2-methylsulphonyl-4-trifluoromethylphenyl)-propane-i,3-dione] |  | concentration at which a total absence of staining is observed ([1]; YT broth, 1% agarose, 5 mM L-tyrosine, 16 hours at 37° C., compound solubilized in water, pH 7.5, series 0 mM to 14 mM): 7 mM
3 | CCOc1c(S(=O)(=O)CC)ccc(C(=O)C2C(=O)CC(C)CC2=O)c1Cl (stereo not shown) [2-(2-chloro-3-ethoxy-4-(ethyl-sulphonyl)benzoyl)-5-methyl-1,3-cyclohexadione] | 7 mM | 
4 | FAA: HPPD derived from Arabidopsis thaliana, used for comparison (protein, UniProt P93836 1-445, looked up) 4-hydroxyphenylpyruvate …: MGHQNAAVSENQNHDDGAASSPGFKLVGFSKFVRKNPKSDKFKVKRFHHIEFWCGDATNVARRFSWGLGMRFSAKSDLSTGNMVHASYLLTSGDLRFLFTAPYSPSLSAGEIKPTTTASIPSFDHGSCRSFFSSHGLGVRAVAIEVEDAESAFSISVANGAIPSSPPIVLNEAVTIAEVKLYGDVVLRYVSYKAEDTEKSEFLPGFERVEDASSFPLDYGIRRLDHAVGNVPELGPALTYVAGFTGFHQFAEFTADDVGTAESGLNSAVLASNDEMVLLPINEPVHGTKRKSQIQTYLEHNEGAGLQHLALMSEDIFRTLREMRKRSSIGGFDFMPSPPPTYYQNLKKRVGDVLSDDQIKECEELGILVDRDDQGTLLQIFTKPLGDRPTIFIEIIQRVGCMMKDEEGKAYQSGGCGGFGKGNFSELFKSIEEYEKTLEAKQLVG |  | brown staining score [2]: 10
